This passage reports EC50 results from US20190010139A1 (priority 2015, published 2019).

Read-outs that look alike come from different tables or passages of the source.

For the assay, the system named is NL-RLuc virus. Nature of the assay: Inhibition of HIV replication (NL-RLuc luciferase reporter virus in MT-2 cells). Format: cell-based. As to conditions: Human immunodeficiency virus 1, MT2, 120 h. The text has this: Inhibition of HIV Replication:
A recombinant NL-RLuc proviral clone was constructed in which a section of the nef gene from NL4-3 was replaced with the Renilla Luciferase gene. This virus is fully infectious and can undergo multiple cycles of replication in cell culture. In addition, the luciferous reporter provides a simple and easy method for quantitating the extent of virus growth and consequently, the antiviral activity of test compounds. The plasmid pNLRLuc contains the proviral NL-Rluc DNA cloned into pUC 18 at the PvuII site. The NL-RLuc virus was prepared by transfection of 293T cells with the plasmid pNLRLuc. Transfections were performed using the LipofectAMINE PLUS kit from Invitrogen (Carlsbad, Calif.) according to the manufacturer and the virus generated was titered in MT-2 cells. For susceptibility analyses, the titrated virus was used to infect MT-2 cells in the presence of compound, and after 5 days of incubation, cells were processed and quantitated for virus growth by the amount of expressed luciferase. Assay media was RPMI 1640 supplemented with 10% heat inactivated fetal bovine serum (FBS), 100 units/ml penicillin G/100 units/ml streptomycin, 10 mM HEPES buffer pH 7.55 and 2 mM L-glutamine. The results from at least 2 experiments were used to calculate the EC50 values. Luciferase was quantitated using the Dual Luciferase kit from Promega (Madison, Wis.). Susceptibility of viruses to compounds was determined by incubation in the presence of serial dilutions of the compound. The 50% effective concentration (EC50) was calculated by using the exponential form of the median effect equation where (Fa)=1/[1+(ED50/drug conc.)^m](Johnson V A, Byington R T. Infectivity Assay. In Techniques in HIV Research. ed. Aldovini A, Walker B D. 71-76. New York: Stockton Press.1990). Activity equal to A refers to a compound having an EC50≤100 nM, while B and C denote compounds having an EC50 between 100 nM and 1 uM (B) or >1 uM (C).

With `COCCN(C)Cc1nc(C)c([C@H](OC(C)(C)C)C(=O)O)c(N2CCC3(CCC3)CC2)c1-c1ccc(OCCc2ccc(F)cc2)cc1` [Example 43, (S)-2-(tert-Butoxy)-2-(5-(4-(4-fluorophenethoxy)phenyl)-6-(((2-methoxyethyl)(methyl)amino)methyl)-2-methyl-4-(7-azaspiro[3.5]nonan-7-yl)pyridin-3-yl)acetic acid], the EC50 (read-out: Activity) is less than 0.1 µM.
The same measure, in the same setting: then `Cc1nc(CN2CCCC2)c(-c2ccc(OCCc3ccc(F)cc3)cc2)c(N2CCC3(CCC3)CC2)c1[C@H](OC(C)(C)C)C(=O)O` [Example 44, (S)-2-(tert-Butoxy)-2-(5-(4-(4-fluorophenethoxy)phenyl)-2-methyl-6-(pyrrolidin-1-ylmethyl)-4-(7-azaspiro[3.5]nonan-7-yl)pyridin-3-yl)acetic acid], with less than 0.1 µM.
In the case of `Cc1nc(C)c([C@H](OC(C)(C)C)C(=O)O)c(N2CCC3(CCCCC3)C2)c1-c1ccc(OCCc2ccc(F)cc2)cc1` [Example 62, (S)-2-(tert-Butoxy)-2-(5-(4-(4-fluorophenethoxy)phenyl)-2,6-dimethyl-4-(2-azaspiro[4.5]decan-2-yl)pyridin-3-yl)acetic acid], the EC50 (read-out: Activity) is less than 0.1 µM and the EC50 (read-out: EC50 μM) turned out to be 0.017 µM.
Consider `COc1cc(-c2c(C)nc(C)c([C@H](OC(C)(C)C)C(=O)O)c2N2CCC3(CCCC3)CC2)ccc1C(=O)NCc1ccccc1` [Example 25, (S)-2-(5-(4-(Benzylcarbamoyl)-3-methoxyphenyl)-2,6-dimethyl-4-(8-azaspiro[4.5]decan-8-yl)pyridin-3-yl)-2-(tert-butoxy)acetic acid], for which, for the setting “read-out: Activity”, the EC50 was less than 0.1 µM.
Same read-out and setting: in the case of `Cc1nc(C)c([C@H](OC(C)(C)C)C(=O)O)c(N2CCC3(CCCCC3)C2)c1-c1ccc(C(=O)NCc2ccccc2)cc1` [Example 63, (S)-2-(5-(4-(Benzylcarbamoyl)phenyl)-2,6-dimethyl-4-(2-azaspiro[4.5]decan-2-yl)pyridin-3-yl)-2-(tert-butoxy)acetic acid] it was less than 0.1 µM; in that of `Cc1nc(C)c([C@H](OC(C)(C)C)C(=O)O)c(N2CCC3(CCCC3)CC2)c1-c1ccc(OCCc2ccc(F)cc2)cc1` [Example 20, (S)-2-(tert-Butoxy)-2-(5-(4-(4-fluorophenethoxy)phenyl)-2,6-dimethyl-4-(8-azaspiro[4.5]decan-8-yl)pyridin-3-yl)acetic acid], less than 0.1 µM.
`Cc1nc(C)c([C@H](OC(C)(C)C)C(=O)O)c(N2CCc3ccccc3C2)c1-c1ccc(OCCc2ccc(F)cc2)cc1` [Example 2, (S)-2-(tert-Butoxy)-2-(4-(3,4-dihydroisoquinolin-2(1H)-yl)-5-(4-(4-fluorophenethoxy)phenyl)-2,6-dimethylpyridin-3-yl)acetic acid]: the EC50 (read-out: EC50 μM) stood at 0.036 µM.
For the molecule `Cc1nc(C)c([C@H](OC(C)(C)C)C(=O)O)c(N2CCC3(CCCCC3)CC2)c1-c1ccc(C(=O)NCc2ccccc2)cc1` [Example 61, (S)-2-(5-(4-(Benzylcarbamoyl)phenyl)-2,6-dimethyl-4-(3-azaspiro[5.5]undecan-3-yl)pyridin-3-yl)-2-(tert-butoxy)acetic acid], the EC50 (read-out: Activity) was less than 0.1 µM.
Same read-out and setting: in the case of `Cc1nc(C)c([C@H](OC(C)(C)C)C(=O)O)c(N2CC3CC3C2)c1-c1ccc(OCCc2ccc(F)cc2)cc1` (stereo partly drawn) [Example 6, (2S)-2-(4-(3-Azabicyclo[3.1.0]hexan-3-yl)-5-(4-(4-fluorophenethoxy)phenyl)-2,6-dimethylpyridin-3-yl)-2-(tert-butoxy)acetic acid] it was 0.1 to 1 µM.
`CCOCCOCc1nc(C)c([C@H](OC(C)(C)C)C(=O)O)c(N2CCC3(CCC3)CC2)c1-c1ccc(OCCc2ccc(F)cc2)cc1` [Example 49, (S)-2-(tert-Butoxy)-2-(6-((2-ethoxyethoxy)methyl)-5-(4-(4-fluoro-phenethoxy)phenyl)-2-methyl-4-(7-azaspiro[3.5]nonan-7-yl)pyridin-3-yl)acetic acid]: the EC50 is, setting by setting: (read-out: Activity) less than 0.1 µM; (read-out: EC50 μM) 0.006 µM.
As for `Cc1nc(COC2CCOCC2)c(-c2ccc(OCCc3ccc(F)cc3)cc2)c(N2CCC3(CCC3)CC2)c1[C@H](OC(C)(C)C)C(=O)O` [Example 52, (S)-2-(tert-Butoxy)-2-(5-(4-(4-fluorophenethoxy)phenyl)-2-methyl-4-(7-azaspiro[3.5]nonan-7-yl)-6-(((tetrahydro-2H-pyran-4-yl)oxy)methyl)pyridin-3-yl)acetic acid], the EC50 (read-out: Activity) is less than 0.1 µM.
Same read-out and setting: in the case of `Cc1nc(C)c([C@H](OC(C)(C)C)C(=O)O)c(N2CCC3(CCCO3)CC2)c1-c1ccc(OCCc2ccc(F)cc2)cc1` [Example 66, (S)-2-(tert-Butoxy)-2-(5-(4-(4-fluorophenethoxy)phenyl)-2,6-dimethyl-4-(1-oxa-8-azaspiro[4.5]decan-8-yl)pyridin-3-yl)acetic acid] it was less than 0.1 µM; in that of `Cc1nc(C)c([C@H](OC(C)(C)C)C(=O)O)c(N2CCc3ccccc3C2)c1-c1ccc(OCCc2ccc(F)cc2)cc1` [Example 10, (S)-2-(tert-Butoxy)-2-(4-(3,4-dihydroisoquinolin-2(1H)-yl)-5-(4-(4-fluorophenethoxy)phenyl)-2,6-dimethylpyridin-3-yl)acetic acid], less than 0.1 µM; in that of `Cc1nc(C)c([C@H](OC(C)(C)C)C(=O)O)c(N2CCC3(CCC3)CC2)c1-c1ccc(OCC(C)(C)c2ccc(F)cc2)cc1` [Example 28, (S)-2-(tert-butoxy)-2-(5-(4-(2-(4-fluorophenyl)-2-methylpropoxy)phenyl)-2,6-dimethyl-4-(7-azaspiro[3.5]nonan-7-yl)pyridin-3-yl)acetic acid], less than 0.1 µM.
In the case of `Cc1nc(C)c([C@H](OC(C)(C)C)C(=O)O)c(N2CCC3(CC2)CC3(F)F)c1-c1ccc(C(=O)NCc2ccccc2)cc1` [Example 71, (S)-2-(5-(4-(Benzylcarbamoyl)phenyl)-4-(1,1-difluoro-6-azaspiro[2.5]octan-6-yl)-2,6-dimethylpyridin-3-yl)-2-(tert-butoxy)acetic acid], the EC50 was less than 0.1 µM (read-out: Activity) and 0.018 µM (read-out: EC50 μM).
Take `Cc1nc(CNCC2CCCCC2)c(-c2ccc(OCCc3ccc(F)cc3)cc2)c(N2CCC3(CCC3)CC2)c1[C@H](OC(C)(C)C)C(=O)O` [Example 56, (S)-2-(tert-Butoxy)-2-(6-(((cyclohexylmethyl)amino)methyl)-5-(4-(4-fluorophenethoxy)phenyl)-2-methyl-4-(7-azaspiro[3.5]nonan-7-yl)pyridin-3-yl)acetic acid]: the EC50 (read-out: Activity) was less than 0.1 µM.
On the same count and under the same terms, then `Cc1nc(CN2CCC3(CCC3)CC2)c(-c2ccc(OCCc3ccc(F)cc3)cc2)c(N2CCC3(CCC3)CC2)c1[C@H](OC(C)(C)C)C(=O)O` [Example 57, (S)-2-(6-(7-Azaspiro[3.5]nonan-7-ylmethyl)-5-(4-(4-fluorophenethoxy)phenyl)-2-methyl-4-(7-azaspiro[3.5]nonan-7-yl)pyridin-3-yl)-2-(tert-butoxy)acetic acid], with less than 0.1 µM.
Same read-out and setting: in the case of `Cc1nc(COC2COC2)c(-c2ccc(OCCc3ccc(F)cc3)cc2)c(N2CCC3(CCC3)CC2)c1[C@H](OC(C)(C)C)C(=O)O` [Example 58, (S)-2-(tert-Butoxy)-2-(5-(4-(4-fluorophenethoxy)phenyl)-2-methyl-6-((oxetan-3-yloxy)methyl)-4-(7-azaspiro[3.5]nonan-7-yl)pyridin-3-yl)acetic acid] it was less than 0.1 µM.
Same read-out and setting: in the case of `Cc1nc(C)c([C@H](OC(C)(C)C)C(=O)O)c(N2CCC3(CCC3)CC2)c1-c1ccc(C(=O)NCc2ccccc2)c(F)c1` [Example 31, (S)-2-(5-(4-(Benzylcarbamoyl)-3-fluorophenyl)-2,6-dimethyl-4-(7-azaspiro[3.5]nonan-7-yl)pyridin-3-yl)-2-(tert-butoxy)acetic acid] it was less than 0.1 µM.
For `Cc1nc(C)c([C@H](OC(C)(C)C)C(=O)O)c(N2CCC3(CCC3)CC2)c1-c1ccc(C(=O)NCc2ccccc2)cc1` [Example 29, (S)-2-(5-(4-(Benzylcarbamoyl)phenyl)-2,6-dimethyl-4-(7-azaspiro[3.5]nonan-7-yl)pyridin-3-yl)-2-(tert-butoxy)acetic acid], the EC50 runs as follows: (read-out: Activity) less than 0.1 µM; (read-out: EC50 μM) 0.007 µM.
Regarding `COc1ccc(NCc2nc(C)c([C@H](OC(C)(C)C)C(=O)O)c(N3CCC4(CCC4)CC3)c2-c2ccc(OCCc3ccc(F)cc3)cc2)cc1` [Example 47, (S)-2-(tert-Butoxy)-2-(5-(4-(4-fluorophenethoxy)phenyl)-6-(((4-methoxyphenyl)-amino)methyl)-2-methyl-4-(7-azaspiro[3.5]nonan-7-yl)pyridin-3-yl)acetic acid], the EC50 (read-out: Activity) was less than 0.1 µM.
As to `COc1cc(-c2c(C)nc(C)c([C@H](OC(C)(C)C)C(=O)O)c2N2CCC3(CCC3)CC2)ccc1C(=O)NCc1ccccc1` [Example 32, (S)-2-(5-(4-(Benzylcarbamoyl)-3-methoxyphenyl)-2,6-dimethyl-4-(7-azaspiro[3.5]nonan-7-yl)pyridin-3-yl)-2-(tert-butoxy)acetic acid], the EC50 (read-out: Activity) was less than 0.1 µM.
